Assay results from ChEMBL document CHEMBL4138123, “Design, synthesis and biological evaluation of novel pyrazolochalcones as potential modulators of PI3K/Akt/mTOR pathway and inducers of apoptosis in breast cancer cells” (Eur J Med Chem, 2017).

Experiments:
Assay type in all cases: functional
CCRF-CEM = test: Cytotoxicity against human CCRF-CEM cells assessed as growth inhibition after 48 hrs by sulforhodamine B assay
HL-60(TB) = test: Cytotoxicity against human HL-60(TB) cells assessed as growth inhibition after 48 hrs by sulforhodamine B assay; settings: HL-60, 48 h
NCI-H23 = test: Cytotoxicity against human NCI-H23 cells assessed as growth inhibition after 48 hrs by sulforhodamine B assay; settings: NCI-H23, 48 h; for CC50: read-out: LC50 (the source's name)
COLO 205 [1] = test: Cytotoxicity against human COLO205 cells assessed as growth inhibition after 48 hrs by sulforhodamine B assay; settings: COLO 205, 48 h
KM12 = test: Cytotoxicity against human KM12 cells assessed as growth inhibition after 48 hrs by sulforhodamine B assay; settings: KM12, 48 h
IGROV-1 [2] = test: Cytotoxicity against human IGROV1 cells assessed as growth inhibition after 48 hrs by sulforhodamine B assay; settings: IGROV-1, 48 h
NCI/ADR-RES [3] = test: Cytotoxicity against human NCI/ADR-RES cells assessed as growth inhibition after 48 hrs by sulforhodamine B assay
MDA-MB-231 = test: Cytotoxicity against human MDA-MB-231 cells assessed as growth inhibition after 48 hrs by sulforhodamine B assay; settings: MDA-MB-231, 48 h
MDA-MB-468 = test: Cytotoxicity against human MDA-MB-468 cells assessed as growth inhibition after 48 hrs by sulforhodamine B assay; settings: MDA-MB-468, 48 h
SK-MEL-5 = test: Cytotoxicity against human SK-MEL-5 cells assessed as cell growth at 0.01 uM after 48 hrs by sulforhodamine B assay relative to control; settings: SK-MEL-5, 48 h, read-out: Activity
Malme-3M = test: Cytotoxicity against human MALME-3M cells assessed as cell growth at 0.01 uM after 48 hrs by sulforhodamine B assay relative to control; settings: read-out: Activity
COLO 205 [4] = test: Cytotoxicity against human COLO205 cells assessed as cell growth at 0.01 uM after 48 hrs by sulforhodamine B assay relative to control; settings: COLO 205, 48 h, read-out: Activity
NCI-H322M = test: Cytotoxicity against human NCI-H322M cells assessed as cell growth at 0.01 uM after 48 hrs by sulforhodamine B assay relative to control; settings: read-out: Activity
SR = test: Cytotoxicity against human SR cells assessed as cell growth at 0.01 uM after 48 hrs by sulforhodamine B assay relative to control; settings: read-out: Activity
UO-31 [5] = test: Cytotoxicity against human UO31 cells assessed as cell growth at 0.01 uM after 48 hrs by sulforhodamine B assay relative to control; settings: UO-31, 48 h, read-out: Activity
BT-549 = test: Cytotoxicity against human BT549 cells assessed as cell growth at 0.01 uM after 48 hrs by sulforhodamine B assay relative to control; settings: BT-549, 48 h, read-out: Activity
HOP-62 [6] = test: Cytotoxicity against human HOP62 cells assessed as cell growth at 0.1 uM after 48 hrs by sulforhodamine B assay relative to control; settings: HOP-62, 48 h, read-out: Activity
NCI-H226 [7] = test: Cytotoxicity against human NCI-H226 cells assessed as cell growth at 0.1 uM after 48 hrs by sulforhodamine B assay relative to control; settings: NCI-H226, 48 h, read-out: Activity
MDA-MB-435 = test: Cytotoxicity against human MDA-MB-435 cells assessed as cell growth at 0.1 uM after 48 hrs by sulforhodamine B assay relative to control; settings: MDA-MB-435, 48 h, read-out: Activity
IGROV-1 [8] = test: Cytotoxicity against human IGROV1 cells assessed as cell growth at 0.1 uM after 48 hrs by sulforhodamine B assay relative to control; settings: IGROV-1, 48 h, read-out: Activity
A498 = test: Cytotoxicity against human A498 cells assessed as cell growth at 0.1 uM after 48 hrs by sulforhodamine B assay relative to control; settings: A498, 48 h, read-out: Activity
UO-31 [9] = test: Cytotoxicity against human UO31 cells assessed as cell growth at 0.1 uM after 48 hrs by sulforhodamine B assay relative to control; settings: UO-31, 48 h, read-out: Activity
HOP-62 [10] = test: Cytotoxicity against human HOP62 cells assessed as cell growth at 1 uM after 48 hrs by sulforhodamine B assay relative to control; settings: HOP-62, 48 h, read-out: Activity
NCI-H226 [11] = test: Cytotoxicity against human NCI-H226 cells assessed as cell growth at 1 uM after 48 hrs by sulforhodamine B assay relative to control; settings: NCI-H226, 48 h, read-out: Activity
HT-29 [12] = test: Cytotoxicity against human HT-29 cells assessed as cell growth at 1 uM after 48 hrs by sulforhodamine B assay relative to control; settings: HT-29, 48 h, read-out: Activity
U-251 = test: Cytotoxicity against human U251 cells assessed as cell growth at 1 uM after 48 hrs by sulforhodamine B assay relative to control; settings: U-251, 48 h, read-out: Activity
OVCAR-4 = test: Cytotoxicity against human OVCAR4 cells assessed as cell growth at 1 uM after 48 hrs by sulforhodamine B assay relative to control; settings: OVCAR-4, 48 h, read-out: Activity
ACHN = test: Cytotoxicity against human ACHN cells assessed as cell growth at 1 uM after 48 hrs by sulforhodamine B assay relative to control; settings: read-out: Activity
Hs-578T = test: Cytotoxicity against human Hs 578T cells assessed as cell growth at 1 uM after 48 hrs by sulforhodamine B assay relative to control; settings: read-out: Activity
HT-29 [13] = test: Cytotoxicity against human HT-29 cells assessed as cell growth at 10 uM after 48 hrs by sulforhodamine B assay relative to control; settings: HT-29, 48 h, read-out: Activity
M14 = test: Cytotoxicity against human M14 cells assessed as cell growth at 10 uM after 48 hrs by sulforhodamine B assay relative to control; settings: M14, 48 h, read-out: Activity
NCI/ADR-RES [14] = test: Cytotoxicity against human NCI/ADR-RES cells assessed as cell growth at 10 uM after 48 hrs by sulforhodamine B assay relative to control; settings: read-out: Activity
PC-3 = test: Cytotoxicity against human PC3 cells assessed as cell growth at 10 uM after 48 hrs by sulforhodamine B assay relative to control; settings: PC-3, 48 h, read-out: Activity
HT-29 [15] = test: Cytotoxicity against human HT-29 cells assessed as cell growth at 100 uM after 48 hrs by sulforhodamine B assay relative to control; settings: HT-29, 48 h, read-out: Activity
UO-31 [16] = test: Cytotoxicity against human UO31 cells assessed as cell growth at 100 uM after 48 hrs by sulforhodamine B assay relative to control; settings: UO-31, 48 h, read-out: Activity
MCF7 = test: Cytotoxicity against human MCF7 cells assessed as cell growth at 100 uM after 48 hrs by sulforhodamine B assay relative to control; settings: MCF7, 48 h, read-out: Activity

## COc1cc2c(cc1OC)C(=O)/C(=C/c1cc(-c3ccc4c(c3)OCO4)n[nH]1)C2
CCRF-CEM
  GI50: 1.14 µM
  LC50 (concentration killing 50% of cells): > 100 µM
  TGI: 3.61 µM
HL-60(TB)
  GI50: 2.07 µM
  LC50: > 100 µM
  TGI: 5.59 µM
NCI-H23
  GI50: 1.87 µM
  TGI: 3.91 µM
  CC50: 8.19 µM
COLO 205 [1]
  GI50: 1.7 µM
  LC50: 5.68 µM
  TGI: 3.11 µM
KM12
  GI50: 1.29 µM
  LC50: 5.75 µM
  TGI: 2.73 µM
IGROV-1 [2]
  GI50: 1.89 µM
  LC50: 14.3 µM
  TGI: 4.58 µM
NCI/ADR-RES [3]
  GI50: 2.25 µM
  LC50: > 100 µM
  TGI: 6.87 µM
MDA-MB-231
  GI50: 1.66 µM
  LC50: 6.18 µM
  TGI: 3.2 µM
MDA-MB-468
  GI50: 1.07 µM
  LC50: 5.44 µM
  TGI: 2.41 µM
SK-MEL-5
  growth at 0.01 µM: 95%
Malme-3M
  growth at 0.01 µM: 93%
COLO 205 [4]
  growth at 0.01 µM: 98%
NCI-H322M
  growth at 0.01 µM: 102%
SR
  growth at 0.01 µM: 97%
UO-31 [5]
  growth at 0.01 µM: 86%
BT-549
  growth at 0.01 µM: 96%
HOP-62 [6]
  growth at 0.1 µM: 100%
NCI-H226 [7]
  growth at 0.1 µM: 83%
MDA-MB-435
  growth at 0.1 µM: 96%
IGROV-1 [8]
  growth at 0.1 µM: 88%
A498
  growth at 0.1 µM: 80%
UO-31 [9]
  growth at 0.1 µM: 85%
HOP-62 [10]
  growth at 1 µM: 82%
NCI-H226 [11]
  growth at 1 µM: 79%
HT-29 [12]
  growth at 1 µM: 74%
U-251
  growth at 1 µM: 56%
OVCAR-4
  growth at 1 µM: 57%
ACHN
  growth at 1 µM: 94%
Hs-578T
  growth at 1 µM: 92%
HT-29 [13]
  growth at 10 µM: -77%
M14
  growth at 10 µM: -87%
NCI/ADR-RES [14]
  growth at 10 µM: -17%
PC-3
  growth at 10 µM: -75%
HT-29 [15]
  growth at 100 µM: -70%
UO-31 [16]
  growth at 100 µM: -95%
MCF7
  growth at 100 µM: -72%

## COc1cc(-c2cc(/C=C/C(=O)c3ccc(N)cc3)[nH]n2)cc(OC)c1OC
CCRF-CEM
  GI50: 0.55 µM
  LC50 (concentration killing 50% of cells): > 100 µM
  TGI: 4.17 µM
HL-60(TB)
  GI50: 1.74 µM
  LC50: > 100 µM
  TGI: 10.8 µM
NCI-H23
  GI50: 2.48 µM
  TGI: 6.79 µM
  CC50: 73.2 µM
COLO 205 [1]
  GI50: 1.74 µM
  LC50: 6.42 µM
  TGI: 3.34 µM
KM12
  GI50: 1.41 µM
  LC50: 7.27 µM
  TGI: 2.88 µM
IGROV-1 [2]
  GI50: 3.2 µM
  LC50: > 100 µM
  TGI: 10.5 µM
NCI/ADR-RES [3]
  GI50: 3.8 µM
  LC50: > 100 µM
  TGI: 65.8 µM
MDA-MB-231
  GI50: 2.06 µM
  LC50: 47.5 µM
  TGI: 12.2 µM
MDA-MB-468
  GI50: 1.01 µM
  LC50: 8.42 µM
  TGI: 2.91 µM
SK-MEL-5
  growth at 0.01 µM: 95%
Malme-3M
  growth at 0.01 µM: 98%
COLO 205 [4]
  growth at 0.01 µM: 93%
NCI-H322M
  growth at 0.01 µM: 95%
SR
  growth at 0.01 µM: 92%
UO-31 [5]
  growth at 0.01 µM: 91%
BT-549
  growth at 0.01 µM: 85%
HOP-62 [6]
  growth at 0.1 µM: 92%
NCI-H226 [7]
  growth at 0.1 µM: 98%
MDA-MB-435
  growth at 0.1 µM: 95%
IGROV-1 [8]
  growth at 0.1 µM: 108%
A498
  growth at 0.1 µM: 85%
UO-31 [9]
  growth at 0.1 µM: 91%
HOP-62 [10]
  growth at 1 µM: 86%
NCI-H226 [11]
  growth at 1 µM: 88%
HT-29 [12]
  growth at 1 µM: 82%
U-251
  growth at 1 µM: 76%
OVCAR-4
  growth at 1 µM: 62%
ACHN
  growth at 1 µM: 79%
Hs-578T
  growth at 1 µM: 87%
HT-29 [13]
  growth at 10 µM: -38%
M14
  growth at 10 µM: -64%
NCI/ADR-RES [14]
  growth at 10 µM: 15%
PC-3
  growth at 10 µM: 1%
HT-29 [15]
  growth at 100 µM: -49%
UO-31 [16]
  growth at 100 µM: -93%
MCF7
  growth at 100 µM: -57%
